This note sets out measurements from patent publication US20230339977A1, “SUBSTITUTED HETEROARYL COMPOUND, AND COMPOSITION AND APPLICATION THEREOF” (SUNSHINE LAKE PHARMA CO., LTD., priority 2020, published 2023).

For the test, the system named is JAK1/TYK2. Put plainly: Cell level activity test of JAK1/TYK2 (IFN-α induced STAT3 phosphorylation in PBMC). The conditions noted are these: Homo sapiens; P-STAT3 by ELISA in PBMC, compound 1 h, IFN-α 5000 U/mL 15 min; read-out: IC50 nM (JAK 1 /TYK2). Format: cell-based. The protocol:
IFN-α can induce the phosphorylation of STAT3 downstream of JAK1/TYK2 in PBMC, and by measuring the level of STAT3 phosphorylation, the activity of the compound on JAK1/TYK2 at the cell level can be reflected.
Whole blood was collected from healthy subjects, anticoagulated with heparin sodium, and PBMC (human peripheral blood mononuclear cells) were extracted. PBMC were seeded in a 96-well culture plates at a density of 1*106/well. Positive wells and negative wells were added with the same volume of DMSO as the compound, and the final concentration of DMSO was 0.5%. The compounds were incubated with the cells at 37° C. for 1 h, and then stimulated by adding IFN-α at a final concentration of 5000 U/mL, an equal volume of medium was added to the negative wells, and incubated for 15 min. The cells were centrifuged to remove the supernatant, then lysed, and P-STAT3 was measured according to the instructions of the ELISA kit, the absorbance was read at 450 nm, and the IC50 value or inhibition rate was calculated.
For `COC1(c2cccc(-c3cn(C)c4cnc(NC(C)=O)cc34)n2)CCOC1` (stereo not drawn) [Control compound, reference compound], the IC50 worked out at 52.7 nM. With `COc1cc(-c2cn(C)c3cnc(NC(C)=O)cc23)nc2c1CCOC21CCOC1` (stereo not drawn) [Example 5, N-(3-(4′-Methoxy-4,5,5′,6′-Tetrahydro-2H-Spiro[Furan-3,8′-Pyrano[3,4-b]Pyridin]-2′-yl)-1-Methyl-1H-Pyrrolo[2,3-c]Pyridin-5-yl)Acetamide], the IC50 was determined as 178 nM. In the case of `CC(=O)Nc1cc2c(-c3cc(C(F)F)c4c(n3)C3(CCOC3)OCC4)cn(C)c2cn1` (stereo not drawn) [Example 7, N-(3-(4′-(Difluoromethyl)-4,5,5′,6′-Tetrahydro-2H-Spiro[Furan-3,8′-Pyrano[3,4-b]Pyridin]-2′-yl)-1-Methyl-1H-Pyrrolo[2,3-c]Pyridin-5-yl)Acetamide], the IC50 is 14.1 nM. To `COCc1cc(-c2cn(C)c3cnc(NC(C)=O)cc23)nc2c1CCOC21CCOC1` (stereo not drawn) [Example 8, N-(3-(4′-(Methoxymethyl)-4,5,5′,6′-Tetrahydro-2H-Spiro[Furan-3,8′-Pyrano[3,4-b]Pyridin]-2′-yl)-1-Methyl-1H-Pyrrolo[2,3-c]Pyridin-5-yl)Acetamide] belongs 41.2 nM. To `CC(=O)Nc1cc2c(-c3ccc4c(n3)C3(CCOC3)OCN4C)cn(C)c2cn1` (stereo not drawn) [Example 9, N-(1-Methyl-3-(1′-Methyl-1′,2′,4,5-Tetrahydro-2Hspiro[Furan-3,4′-Pyrido[3,2-d][1,3]Oxazin]-6′-yl)-1H-Pyrrolo[2,3-c]Pyridin-5-yl)Acetamide] belongs 114 nM; to `CC(=O)Nc1cc2c(-c3ccc4c(n3)C3(CCOC3)OC(=O)N4C)cn(C)c2cn1` (stereo not drawn) [Example 10, N-(1-Methyl-3-(1′-Methyl-2′-Oxo-1′,2′,4,5-Tetrahydro-2H-Spiro[Furan-3,4′-Pyrido[3,2-d][1,3]Oxazin]-6′-yl)-1H-Pyrrolo[2,3-c]Pyridin-5-yl)Acetamide], > 1000 nM. As for `CC(=O)Nc1cc2c(-c3ccc4c(n3)C3(CCCOC3)OC4)cn(C)c2cn1` (stereo not drawn) [Example 11, N-(3-(5′,6′-Dihydro-2′H,4′H,5H-Spiro[Furo[3,4-b]Pyridin-7,3′-Pyran]-2-yl)-1-Methyl-1H-Pyrrolo[2,3-c]Pyridin-5-yl)Acetamide], the figure is > 1000 nM; as for `CC(=O)Nc1cc2c(-c3ccc4c(n3)C3(CCOC3)OC(C)(C)N4C)cn(C)c2cn1` (stereo not drawn) [Example 13, N-(1-Methyl-3-(1′,2′,2′-Trimethyl-1′,2′,4,5-Tetrahydro-2H-Spiro[Furan-3,4′-P yrido[3,2-d][1,3]Oxazin]-6′-yl)-1H-Pyrrolo[2,3-c]Pyridin-5-yl)Acetamide], 104 nM. On to `COCCOc1cc(-c2cn(C)c3cnc(NC(C)=O)cc23)nc2c1CCOC21CCOC1` (stereo not drawn) [Example 15, N-(3-(4′-(2-Methoxyethoxy)-4,5,5′,6′-Tetrahydro-2H-Spiro[Furan-3,8′-Pyrano [3,4-b]Pyridin]-2′-yl)-1-Methyl-1H-Pyrrolo[2,3-c]Pyridin-5-yl)Acetamide], for which the IC50 worked out at 48.6 nM. Consider `CC(=O)Nc1cc2c(-c3cc(OC(C)C)c4c(n3)C3(CCOC3)OCC4)cn(C)c2cn1` (stereo not drawn) [Example 17, N-(3-(4′-Isopropoxy-4,5,5′,6′-Tetrahydro-2H-Spiro[Furan-3,8′-Pyrano[3,4-b]P yridine]-2′-yl)-1-Methyl-1H-Pyrrolo[2,3-c]Pyridin-5-yl)Acetamide], for which the IC50 was found to be 126 nM. As to `CC(=O)Nc1cc2c(-c3ccc4c(n3)C3(CCOC3)OCC4(F)F)cn(C)c2cn1` (stereo not drawn) [Example 18, N-(3-(5′,5′-Difluoro-4,5,5′,6′-Tetrahydro-2H-Spiro[Furan-3,8′-Pyrano[3,4-b]P yridine]-2′-yl)-1-Methyl-1H-Pyrrolo[2,3-c]Pyridin-5-yl)Acetamide], the IC50 was 19.6 nM. For the compound `CC(=O)Nc1cc2c(-c3cc(OCCN(C)C)c4c(n3)C3(CCOC3)OCC4)cn(C)c2cn1` (stereo not drawn) [Example 19, N-(3-(4′-(2-(Dimethylamino)Ethoxy)-4,5,5′,6′-Tetrahydro-2H-Spiro[Furan-3,8′ -Pyrano[3,4-b]Pyridine]-2′-yl)-1-Methyl-1H-Pyrrolo[2,3-c]Pyridin-5-yl)Acetamide], the IC50 amounted to 115 nM. On to `CCCCOc1cc(-c2cn(C)c3cnc(NC(C)=O)cc23)nc2c1CCOC21CCOC1` (stereo not drawn) [Example 20, N-(3-(4′-Butoxy-4,5,5′,6′-Tetrahydro-2H-Spiro[Furan-3,8′-pyrAno[3,4-b]Pyridine]-2′-yl)-1-Methyl-1H-Pyrrolo[2,3-c]Pyridin-5-yl)Acetamide], for which the IC50 came out at 64.9 nM. To `CC(=O)Nc1cc2c(-c3cc(Cl)c4c(n3)C3(CCOC3)OCC4)cn(C)c2cn1` (stereo not drawn) [Example 21, N-(3-(4′-Chloro-4,5,5′,6′-Tetrahydro-2H-Spiro[Furan-3,8′-Pyrano[3,4-b]Pyridine]-2′-yl)-1-Methyl-1H-Pyrrolo[2,3-c]Pyridin-5-yl)Acetamide] belongs 36.9 nM. With `COCCCOc1cc(-c2cn(C)c3cnc(NC(C)=O)cc23)nc2c1CCOC21CCOC1` (stereo not drawn) [Example 22, N-(3-(4′-(3-Methoxypropoxy)-4,5,5′,6′-Tetrahydro-2H-Spiro[Furan-3,8′-Pyrano[3,4-b]Pyridin]-2′-yl)-1-Methyl-1H-Pyrrolo[2,3-c]Pyridin-5-yl)Acetamide], the IC50 was 7.23 nM. Consider `CC(=O)Nc1cc2c(-c3cc(S(C)(=O)=O)c4c(n3)C3(CCOC3)OCC4)cn(C)c2cn1` (stereo not drawn) [Example 23, N-(1-meThyl-3-(4′-(Methylsulfonyl)-4,5,5′,6′-Tetrahydro-2H-Spiro[Furan-3,8′-Pyrano[3,4-b]Pyridin]-2′-yl)-1H-Pyrrolo[2,3-c]Pyridin-5-yl)Acetamide], for which the IC50 amounted to 104 nM. Turning to `CC(=O)Nc1cc2c(-c3cc(N(C)C)c4c(n3)C3(CCOC3)OCC4)cn(C)c2cn1` (stereo not drawn) [Example 24, N-(3-(4′-(Dimethylamino)-4,5,5′,6′-Tetrahydro-2H-Spiro[Furan-3,8′-Pyrano[3,4-b]Pyridin]-2′-yl)-1-Methyl-1H-Pyrrolo[2,3-c]Pyridin-5-yl)Acetamide], the IC50 was 29.9 nM. As to `CC(=O)Nc1cc2c(-c3cc(C#N)c4c(n3)C3(CCOC3)OCC4)cn(C)c2cn1` (stereo not drawn) [Example 25, N-(3-(4′-Cyano-4,5,5′,6′-Tetrahydro-2H-Spiro[Furan-3,8′-Pyrano[3,4-b]Pyridine]-2′-yl)-1-Methyl-1H-Pyrrolo[2,3-c]Pyridin-5-yl)Acetamide], the IC50 amounted to 45.5 nM. Turning to `COC(C)(C)CCOc1cc(-c2cn(C)c3cnc(NC(C)=O)cc23)nc2c1CCOC21CCOC1` (stereo not drawn) [Example 27, N-(3-(4′-(3-Methoxy-3-Methylbutoxy)-4,5,5′,6′-Tetrahydro-2H-Spiro[Furan-3, 8′-Pyrano[3,4-b]Pyridin]-2′-yl)-1-Methyl-1H-Pyrrolo[2,3-c]Pyridin-5-yl)Acetamide], the IC50 is 13.1 nM. As for `COCCCCOc1cc(-c2cn(C)c3cnc(NC(C)=O)cc23)nc2c1CCOC21CCOC1` (stereo not drawn) [Example 28, N-(3-(4′-(4-Methoxybutoxy)-4,5,5′,6′-Tetrahydro-2H-Spiro[Furan-3,8′-Pyrano[3,4-b]Pyridin]-2′-yl)-1-Methyl-1H-Pyrrolo[2,3-c]Pyridin-5-yl)Acetamide], the IC50 came to 12.9 nM.

For the compound `CC(=O)Nc1cc2c(-c3cc(OCCCN(C)C)c4c(n3)C3(CCOC3)OCC4)cn(C)c2cn1` (stereo not drawn) [Example 29, N-(3-(4′-(3-(Dimethylamino)Propoxy)-4,5,5′,6′-Tetrahydro-2H-Spiro[Furan-3, 8′-Pyrano[3,4-b]Pyridin]-2′-yl)-1-Methyl-1H-Pyrrolo[2,3-c]Pyridin-5-yl)Acetamide], the IC50 was 93.1 nM.
